Measured values as given in ChEMBL document CHEMBL2417463, “Synthesis and identification of new flavonoids targeting liver X receptor β involved pathway as potential facilitators of Aβ clearance with reduced lipid accumulation” (J Med Chem, 2013).

These molecules were tested against T1, Oxysterols receptor LXR-beta (Mus musculus) (UniProt Q60644) (assay: Agonist activity at LXRbeta in mouse BV2 cells assessed as degradation of intracellular soluble amyloid beta42 at 1 uM preincubated for 18 hrs followed by soluble amyloid beta42 addition measured after 24 hrs by ELISA relative to vehicle-treated control). Conditions: BV-2.
T1 sequence (whole entry): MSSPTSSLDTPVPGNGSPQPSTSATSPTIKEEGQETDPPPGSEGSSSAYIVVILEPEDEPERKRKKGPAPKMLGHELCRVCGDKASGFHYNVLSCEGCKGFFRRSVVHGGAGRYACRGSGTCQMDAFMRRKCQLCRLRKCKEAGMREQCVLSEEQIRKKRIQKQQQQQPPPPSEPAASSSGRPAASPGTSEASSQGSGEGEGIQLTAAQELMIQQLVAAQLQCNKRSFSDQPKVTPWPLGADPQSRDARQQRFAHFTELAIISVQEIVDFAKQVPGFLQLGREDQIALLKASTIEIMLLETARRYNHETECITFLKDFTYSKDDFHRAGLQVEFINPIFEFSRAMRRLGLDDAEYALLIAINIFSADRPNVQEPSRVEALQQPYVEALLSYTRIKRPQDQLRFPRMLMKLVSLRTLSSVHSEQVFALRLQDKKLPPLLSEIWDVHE
Type: cell-based

| Activity | SMILES |
| --- | --- |
| 18% | O=C(O)c1ccc(-c2cc(=O)c3ccc(O)cc3o2)cc1 |
| 42% | Nc1ccc(C(=O)/C=C/c2csc3ccccc23)c(O)c1 |
| 16% | CCOc1ccc(/C=C/C(=O)c2ccc(N)cc2O)cc1 |
| 40% | Nc1ccc(C(=O)/C=C/c2ccc3c(c2)OCO3)c(O)c1 |
| 23% | CCOc1ccc(/C=C/C(=O)c2ccc(N)cc2O)cc1OC |
| 39% | Nc1ccc(C(=O)/C=C/c2c[nH]c3ccccc23)c(O)c1 |
| 33% | COc1cccc(/C=C/C(=O)c2ccc(N)cc2O)c1 |
| 7% | O=c1cc(-c2ccc3ccccc3c2)oc2cc(O)ccc12 |
| 37% | Cc1ccc(/C=C/C(=O)c2ccc(N)cc2O)s1 |

Each molecule was assayed against T1, Oxysterols receptor LXR-beta (Mus musculus) (assay: Agonist activity at LXRbeta in mouse RAW264.7 cells assessed as induction of ABCA1 promoter activation at 1 uM after 24 hrs by Dual-Glo luciferase reporter gene assay relative to vehicle-treated control). Conditions: not given.
Type: cell-based

| fold change (FC) | SMILES |
| --- | --- |
| 1.09 | COc1ccc(-c2ccc(/C=C/C(=O)c3ccc(N)cc3O)s2)cc1 |
| 1.66 | O=C(O)c1ccc(-c2cc(=O)c3ccc(O)cc3o2)cc1 |
| 2.31 | Nc1ccc(C(=O)/C=C/c2csc3ccccc23)c(O)c1 |
| 1.76 | Nc1ccc(C(=O)/C=C/c2cccc(Oc3ccccc3)c2)c(O)c1 |
| 1.02 | Cc1ccc(/C=C/C(=O)c2ccc(N(C)C)cc2O)o1 |
| 0.98 | COc1cc(/C=C/C(=O)c2ccc(N)cc2O)cc(OC)c1OC |
| 1.92 | CCOc1ccc(/C=C/C(=O)c2ccc(N)cc2O)cc1 |
| 1.92 | Nc1ccc(C(=O)/C=C/c2ccc3c(c2)OCO3)c(O)c1 |
| 1.57 | COc1cc(N(C)C)ccc1C(=O)/C=C/c1ccc(C)o1 |
| 1.55 | Nc1ccc(C(=O)/C=C/c2ccc(-c3ccccc3)cc2)c(O)c1 |
| 1.86 | CCOc1ccc(/C=C/C(=O)c2ccc(N)cc2O)cc1OC |
| 1.37 | CCOc1ccc(-c2cc(=O)c3ccc(N)cc3o2)cc1 |
| 1.16 | Nc1ccc(C(=O)/C=C/c2ccc(Cl)cc2)c(O)c1 |
| 1.36 | O=c1cc(-c2ccc3ccccc3n2)oc2cc(O)ccc12 |
| 2.18 | CC1=C(/C=C/C(C)=C\C=C\C(C)=C\C(=O)O)C(C)(C)CCC1 |
| 1.19 | CN(CCOc1ccc(CC2SC(=O)NC2=O)cc1)c1ccccn1 (stereo not given) |
| 1.3 | Cc1ccc(-c2cc(=O)c3ccc(N)cc3o2)o1 |
| 1.73 | CCc1ccc(/C=C/C(=O)c2ccc(N)cc2O)cc1 |
| 0.88 | COc1cc(N)ccc1C(=O)/C=C/c1ccc2ccccc2c1 |
| 1.03 | COc1ccc(-c2ccc(-c3cc(=O)c4ccc(O)cc4o3)s2)cc1 |
| 1.15 | O=c1cc(-c2ccc(-c3ccccc3)cc2)oc2cc(O)ccc12 |

| fold change (FC) | SMILES |
| --- | --- |
| 1.06 | CCOc1ccc(/C=C/C(=O)c2ccc(N)cc2OC)cc1 |
| 1.34 | Nc1ccc(C(=O)CCc2ccc3ccccc3c2)c(O)c1 |
| 2.05 | CC(C)c1ccc(/C=C/C(=O)c2ccc(N)cc2O)cc1 |
| 1.9 | Cc1ccc(CCC(=O)c2ccc(N)cc2O)o1 |
| 1.17 | O=c1cc(-c2cccc(Oc3ccccc3)c2)oc2cc(O)ccc12 |
| 1.44 | O=c1cc(-c2csc3ccccc23)oc2cc(O)ccc12 |
| 1.1 | CC(C)OC(=O)C(C)(C)Oc1ccc(C(=O)c2ccc(Cl)cc2)cc1 |
| 1.5 | COc1cc(N)ccc1C(=O)/C=C/c1ccc(C)s1 |
| 1.12 | Nc1ccc(C(=O)/C=C/c2cc(C(F)(F)F)cc(C(F)(F)F)c2)c(O)c1 |
| 1.76 | Nc1ccc(C(=O)/C=C/c2c[nH]c3ccccc23)c(O)c1 |
| 2.09 | COc1cccc(/C=C/C(=O)c2ccc(N)cc2O)c1 |
| 1.36 | Nc1ccc(C(=O)/C=C/c2ccc(F)cc2)c(O)c1 |
| 1.35 | COc1cc(N(C)C)ccc1C(=O)/C=C/c1ccc2ccccc2c1 |
| 1.2 | COc1cc(N)ccc1C(=O)/C=C/c1ccc(C)o1 |
| 1.26 | CSc1ccc(/C=C/C(=O)c2ccc(N)cc2O)cc1 |
| 1.08 | CC(=O)Nc1ccc(C(=O)/C=C/c2ccc(C)s2)c(O)c1 |
| 1.22 | CC(C)c1ccc(-c2cc(=O)c3ccc(O)cc3o2)cc1 |
| 1.57 | O=c1cc(-c2ccc3ccccc3c2)oc2cc(O)ccc12 |
| 2 | Cc1ccc(/C=C/C(=O)c2ccc(N)cc2O)s1 |
| 1.47 | Cc1ccc(-c2cc(=O)c3ccc(N)cc3o2)s1 |
